Source: patent US20250352539A1, “COMBINATION THERAPY FOR TREATING CANCER” (AstraZeneca AB, priority 2022, published 2025)
“And” between values parts separate entries of the source, which are not always exact repeats. Equal entries are not always repeated. Where two headings read alike, the source gives them in different places.

Tests used:
Assay in all cases: 144-hour CellTiter-Glo 2.0 proliferation assay
Format in all cases: cell-based
AGS = settings: Homo sapiens; AGS gastric; monotherapy; read-out: mono GI50
Experimental: (§1) Combination profiling was carried out in a panel of cancer cell lines utilising Horizon Discovery's High Throughput Screening platform.
(§2) Cell lines that have been preserved in liquid nitrogen are thawed and expanded in growth media (see Table 1). Once cells have reached expected doubling times, screening begins. Cells are seeded in 25 μl of growth media in black 384-well tissue culture treated plates (seeding density as noted in Table 11).
(§3) Cells are equilibrated in assay plates via centrifugation and placed at 37° C. 5% CO2 for twenty-four hours before treatment.
(§4) Compounds are transferred to assay plates using and Echo acoustic liquid handling system. 25 nl of each compound was added at the appropriate concentration for all combination dose points. Therefore, final assay volume would be […]. Assay plates are incubated with compound for 6 days and are then analysed using CellTiter-Glo 2.0. All data points are collected via automated processes and are subject to quality control and analysed.
(§5) Growth Inhibition (GI) is reported as a measure of cell growth. The GI percentages are calculated by applying the following test and equation: […]
(§6) where T is the signal measure for a test article, V is the untreated/vehicle-treated control measure, and Vo is the untreated/vehicle control measure at time zero (also colloquially referred as T0 plates). This formula is derived from the Growth Inhibition calculation used in the National Cancer Institute's NCI-60 high throughput screen. For the purposes of this report, all data analysis was performed in Growth Inhibition (except where noted).

NCI-SNU-1 = NCI-SNU-1 gastric; monotherapy; read-out: mono GI50
Experimental: as §1, §2, §3, §4, §5, §6

LMSU = LMSU gastric; monotherapy; read-out: mono GI50
Experimental: as §1, §2, §3, §4, §5, §6

HGC-27 = settings: Homo sapiens; HGC-27 gastric; monotherapy; read-out: mono GI50
Experimental: as §1, §2, §3, §4, §5, §6

PSN1 = settings: monotherapy, read-out: mono GI50
Experimental: as §1, §2, §3, §4, §5, §6

Gp2D = Gp2D colorectal; monotherapy; read-out: mono GI50
Experimental: as §1, §2, §3, §4, §5, §6

RKO = settings: Homo sapiens; RKO colorectal; monotherapy; read-out: mono GI50
Experimental: as §1, §2, §3, §4, §5, §6

LoVo = settings: Homo sapiens; LoVo colorectal; monotherapy; read-out: mono GI50
Experimental: as §1, §2, §3, §4, §5, §6

KE-39 = KE-39 gastric; monotherapy; read-out: mono GI50
Experimental: as §1, §2, §3, §4, §5, §6

A2780 = settings: Homo sapiens; A2780 ovarian; monotherapy; read-out: mono GI50
Experimental: as §1, §2, §3, §4, §5, §6

OVSAHO = settings: Homo sapiens; OVSAHO ovarian; monotherapy; read-out: mono GI50
Experimental: as §1, §2, §3, §4, §5, §6

SNU-324 = SNU-324 pancreatic; monotherapy; read-out: mono GI50
Experimental: as §1, §2, §3, §4, §5, §6

KP-3 = KP-3 pancreatic; monotherapy; read-out: mono GI50
Experimental: as §1, §2, §3, §4, §5, §6

SNU-668 = settings: SNU668; SNU-668 gastric; monotherapy; read-out: mono GI50
Experimental: as §1, §2, §3, §4, §5, §6

PA-1 = settings: Homo sapiens; PA-1 ovarian; monotherapy; read-out: mono GI50
Experimental: as §1, §2, §3, §4, §5, §6

JHOM-1 = JHOM-1 ovarian; monotherapy; read-out: mono GI50
Experimental: as §1, §2, §3, §4, §5, §6

OV7 = OV7 ovarian; monotherapy; read-out: mono GI50
Experimental: as §1, §2, §3, §4, §5, §6

MKN74 = settings: Homo sapiens, MKN-74; MKN74 gastric; monotherapy; read-out: mono GI50
Experimental: as §1, §2, §3, §4, §5, §6

HCT-116 = settings: Homo sapiens; HCT-116 colorectal; monotherapy; read-out: mono GI50
Experimental: as §1, §2, §3, §4, §5, §6

TOV-21G = settings: Homo sapiens, TOV21G; TOV-21G ovarian; monotherapy; read-out: mono GI50
Experimental: as §1, §2, §3, §4, §5, §6

SW837 = settings: Homo sapiens; SW837 colorectal; monotherapy; read-out: mono GI50
Experimental: as §1, §2, §3, §4, §5, §6

CFPAC-1 = settings: Homo sapiens; CFPAC-1 pancreatic; monotherapy; read-out: mono GI50
Experimental: as §1, §2, §3, §4, §5, §6

HT-115 = settings: HT115; HT-115 colorectal; monotherapy; read-out: mono GI50
Experimental: as §1, §2, §3, §4, §5, §6

Caov-3 = settings: Homo sapiens; Caov-3 ovarian; monotherapy; read-out: mono GI50
Experimental: as §1, §2, §3, §4, §5, §6

GCIY = settings: Homo sapiens; GCIY gastric; monotherapy; read-out: mono GI50
Experimental: as §1, §2, §3, §4, §5, §6

OVCAR-3 = settings: Homo sapiens; OVCAR-3 ovarian; monotherapy; read-out: mono GI50
Experimental: as §1, §2, §3, §4, §5, §6

SK-OV-3 = settings: Homo sapiens; SK-OV-3 ovarian; monotherapy; read-out: mono GI50
Experimental: as §1, §2, §3, §4, §5, §6

HPAF-II = settings: Homo sapiens; HPAF-II pancreatic; monotherapy; read-out: mono GI50
Experimental: as §1, §2, §3, §4, §5, §6

KURAMOCHI = KURAMOCHI ovarian; monotherapy; read-out: mono GI50
Experimental: as §1, §2, §3, §4, §5, §6

SW620 = settings: Homo sapiens, SW-620; SW620 colorectal; monotherapy; read-out: mono GI50
Experimental: as §1, §2, §3, §4, §5, §6

C[C@@H]1COCCN1c1cc(C2([S@](C)(=N)=O)CC2)nc(-c2ccnc3[nH]ccc23)n1 [AZD6738, 4-{4-[(3R)-3-Methylmorpholin-4-yl]-6-[1-((R)—S-methylsulfonimidoyl)cyclopropyl]pyrimidin-2-yl}-1H-pyrrolo[2,3-b]-pyridine]
GI50 (AGS): 1210 nM | GI50 (NCI-SNU-1): 1090 nM | GI50 (LMSU): 1710 nM | GI50 (HGC-27): 1150 nM | GI50 (PSN1; Homo sapiens, PSN1, PSN1 pancreatic): 858 nM | GI50 (PSN1; PSN1 pancreatic): 746 nM | GI50 (Gp2D): 501 nM | GI50 (RKO): 1020 nM | GI50 (LoVo): 401 nM | GI50 (KE-39): 1470 nM | GI50 (A2780): 667 nM | GI50 (OVSAHO): 581 nM | GI50 (SNU-324): 476 nM and 534 nM | GI50 (KP-3): 1280 nM and 1900 nM | GI50 (SNU-668): 291 nM | GI50 (PA-1): 1220 nM | GI50 (JHOM-1): 939 nM | GI50 (OV7): 1920 nM | GI50 (MKN74): 741 nM | GI50 (HCT-116): 687 nM | GI50 (TOV-21G): 374 nM | GI50 (SW837): 924 nM | GI50 (CFPAC-1): 757 nM | GI50 (HT-115): 1610 nM | GI50 (Caov-3): 197 nM | GI50 (GCIY): 179 nM | GI50 (OVCAR-3): 370 nM | GI50 (SK-OV-3): 1280 nM | GI50 (HPAF-II): 1030 nM | GI50 (KURAMOCHI): 728 nM | GI50 (SW620): 853 nM
